From patent US20260284208A1, “SYSTEM” (Oxford University Innovation Limited, priority 2023, published 2026)

System: library of 8,380 IKZF3 degrons (ZF-eGFP/mCherry reporter) in Jurkat cells
Experiment: Pooled library screen (FACS, NGS, limma voom LogFC of positive vs negative read counts)
Format: cell-based, human
Procedure: A library of 8,380 IKZF3 degrons was cloned into pLVX-Sprout to create the eGFP/mCherry protein degradation reporter plasmid pool. A lentivirus pool was then generated using the Lenti-X lentiviral vector production method.
Jurkat cells were transduced at a multiplicity of infection of <0.3 with the lentivirus vector library in order to maximise the number of cells with a single integration. Transductions were carried out in 6 well TC-treated cell culture dishes (Falcon) with 3×10^6 cells per well. Cells were incubated for 2 days at 37° C. and 5% CO2 before the supernatant was removed and replaced with fresh media. 6 days post-transduction, mCherry+ cells were isolated via FACS using the FACS Aria Fusion (BD) in a buffer containing PBS (Gibco), 2 mM EDTA (Gibco), 25 mM HEPES (Sigma) and 1% BSA (Sigma). 8 days later, cells were treated with DMSO or a thalidomide analog for 18 hours at 37° C. and 5% CO2. mCherry+GFPlow and NOT(mCherry+GFPlow) cells were sorted by FACS using the FACS Aria Fusion (BD). DMSO treated cells were used to set the mCherry+GFPlow gate and dead cells were excluded from sorting by staining cells with 1 μg/mL DAPI (ThermoFisher). gDNA was isolated using the Maxwell RSC 48 (Promega). gDNA from cells that were unsorted and untreated were also isolated to determine the library representation on the day of compound treatment. Throughout the screen >600× coverage of the library was maintained. 3 biological replicates were carried out with a new transduction taking place each time.
A two-step PCR was used where the first PCR (PCR1) amplified the integrated degron sequence from gDNA and the second PCR (PCR2) added Illumina adaptors and barcodes to permit multiplexing. See Supp F for PCR1 and PCR2 primers. Q5 Hot Start High-Fidelity 2× Master Mix (New England Biolabs) was used for both PCRs. Sufficient gDNA was amplified in PCR1 in order to maintain >600× coverage and amplicons were purified using solid phase reversible immobilization (SPRI) beads (Beckman Coulter). Purified PCR1 products were analysed on the Tapestation 4200 (Agilent) to confirm purity prior to proceeding to PCR2. Sufficient PCR1 product was amplified in PCR2 in order to maintain >600× coverage and amplicons were run on a 2% agarose TAE gel. Target bands were excised and purified using the NucleoSpin Gel and PCR Clean-up Kit (Machery Nagel). Amplicons were analysed on the Tapestation 4200 and quantified using Qubit dsDNA HS kit (ThermoFisher). PCR products were pooled and sequenced as paired-reads on the NovaSeq (Illumina) using a SP2 200 cycles kit (Illumina).
Count distributions, percentage of read mapping, library coverage and replicate correlation per sample were assessed for QC purposes.
To carry out the library screen, we used the same plasmid construct as in our earlier flow cytometry assays, but pooling all 8,380 mutants together into one Jurkat population, ensuring a copy number of one plasmid per cell (FIG. 4B). […] These GFP-negative cells were then separated from the remaining GFP-positive population using fluorescence activated cell sorting (FACS). These two populations were then sequenced and the relative abundance of every mutant in both populations compared to provide a log FC value for each mutant sequence. This value indicated how frequently a sequence is observed in the GFP-negative population relative to the GFP-positive population, and therefore how effective a degron it is for that particular IMID compound.

## CC(C)(C)c1ccc2c(c1)C(=O)N(C1CCC(=O)NC1=O)C2=O (stereo not shown) [A63, 5-(tert-butyl)-2-(2,6-dioxopiperidin-3-yl)isoindoline-1,3-dione]
WT ZF sequence
  position of the WT sequence in the volcano plot of the library screen: far away from the ‘hits’ region
Mutant degron: Degron-ID 214, SEQ ID NO 1763, 46F_47A_49P_50Q_52G_53A_54R_55F_67L
  A63_logFC (Estimated LogFC Coefficient, positive vs negative read counts): 2.012
Mutant degron: Degron-ID 1093, SEQ ID NO 1762, 46F 47F_49N_50I_52G_53A 54Q 55F 67L
  A63_logFC (Estimated LogFC Coefficient, positive vs negative read counts): 2.015
Mutant degron: Degron-ID 1448, SEQ ID NO 1767, 46F_47H_49D_50I_52G_53A_54K_55F_67L
  A63_logFC (Estimated LogFC Coefficient, positive vs negative read counts): 2.005
Mutant degron: Degron-ID 1792, SEQ ID NO 1752, 46F 47I 49E_50V_52G_53A 54P 55F 67L
  A63_logFC (Estimated LogFC Coefficient, positive vs negative read counts): 2.03
Mutant degron: Degron-ID 2032, SEQ ID NO 1761, 46F_47K_49E_50V_52G_53A_54P 55F 67L
  A63_logFC (Estimated LogFC Coefficient, positive vs negative read counts): 2.016
Mutant degron: Degron-ID 2220, SEQ ID NO 1759, 46F_47L_49E_50I_52G_53A_54A_55F_67L
  A63_logFC (Estimated LogFC Coefficient, positive vs negative read counts): 2.022
Mutant degron: Degron-ID 2352, SEQ ID NO 1758, 46F_47L_49P_50I_52G_53A 54P 55F_67L
  A63_logFC (Estimated LogFC Coefficient, positive vs negative read counts): 2.022
Mutant degron: Degron-ID 2873, SEQ ID NO 1765, 46F_47N_49P_50V_52G_53A_54Q_55F_67L
  A63_logFC (Estimated LogFC Coefficient, positive vs negative read counts): 2.01
Mutant degron: Degron-ID 2874, SEQ ID NO 1756, 46F_47N_49P_50V_52G_53A_54R_55F_67L
  A63_logFC (Estimated LogFC Coefficient, positive vs negative read counts): 2.023
Mutant degron: Degron-ID 3479, SEQ ID NO 1750, 46F_47S_49E_50V_52G_53A_54Y_55F_67L
  A63_logFC (Estimated LogFC Coefficient, positive vs negative read counts): 2.034
Mutant degron: Degron-ID 3732, SEQ ID NO 1751, 46F 47T 49N 50I 52G 53A 54P 55F 67L
  A63_logFC (Estimated LogFC Coefficient, positive vs negative read counts): 2.034
Mutant degron: Degron-ID 4130, SEQ ID NO 1769, 46F_47W_49D_50V_52G_53A_54M_55F_67L
  A63_logFC (Estimated LogFC Coefficient, positive vs negative read counts): 2.004
Mutant degron: Degron-ID 4210, SEQ ID NO 1753, 46F_47W_49N_50I_52G_53A_54M_55F 67L
  A63_logFC (Estimated LogFC Coefficient, positive vs negative read counts): 2.029
Mutant degron: Degron-ID 4213, SEQ ID NO 1757, 46F_47W_49N_50I_52G_53A_54Q_55F_67L
  A63_logFC (Estimated LogFC Coefficient, positive vs negative read counts): 2.023
Mutant degron: Degron-ID 6432, SEQ ID NO 1764, 46F_47W_49P_50I_52G_53R_54P_55F_67L
  A63_logFC (Estimated LogFC Coefficient, positive vs negative read counts): 2.011
Mutant degron: Degron-ID 6552, SEQ ID NO 1755, 46L 47F_49P_50I_52G_53F_54P 55C 67L
  A63_logFC (Estimated LogFC Coefficient, positive vs negative read counts): 2.023
Mutant degron: Degron-ID 6583, SEQ ID NO 1754, 46L_47H_49P_50I_52G_53F_54E_55C_67L
  A63_logFC (Estimated LogFC Coefficient, positive vs negative read counts): 2.028
Mutant degron: Degron-ID 7601, SEQ ID NO 1760, 46L_47A_49E_50I_52G_53F_54C_55C_67L
  A63_logFC (Estimated LogFC Coefficient, positive vs negative read counts): 2.006
Mutant degron: Degron-ID 7628, SEQ ID NO 1770, 46L_47C_49E_50I_52G_53F_54K_55C_67L
  A63_logFC (Estimated LogFC Coefficient, positive vs negative read counts): 2.001
Mutant degron: Degron-ID 7865, SEQ ID NO 1760, 46L 47R_49E_50I_52G_53F_54G_55C_67L
  A63_logFC (Estimated LogFC Coefficient, positive vs negative read counts): 2.019
Mutant degron: Degron-ID 7971, SEQ ID NO 1768, 46L_47Y_49E_50I_52G_53F_54N_55C_67L
  A63_logFC (Estimated LogFC Coefficient, positive vs negative read counts): 2.005
